Earlier results on 5 compounds are cited in patent US20230364254A1, “METHODS FOR TREATING CANCERS WITH ANTIBODY DRUG CONJUGATES (ADC) THAT BIND TO 191P4D12 PROTEINS” (priority 2020, published 2023).

Read-outs that look alike come from different tables or passages of the source.

For data set [1], the system named is acute myeloid leukemia (AML). To be noted: administered alone; cited from earlier work.
Data set [2] relates to metastatic urothelial cancer. To be noted: cited from earlier work.
[3] abbreviates: first line, patients ineligible for cisplatin, open-label single arm study.
[4] abbreviates: second-line, post-platinum, phase 3 study in 542 patients.

For “CT-011: anti-PD-1 antibody, a humanized antibody”, the “response in acute myeloid leukemia (AML) at relapse” value in data set [1] was “failed to show response”.
Take “atezolizumab: anti-programmed death-ligand 1 (PD-L1) immune checkpoint inhibitor”: in data set [2] (setting [3]), the “median OS” value is on record as 15.9 months and the “objective response rate (ORR)” value was 23%. Besides, in data set [2] (second-line), the “confirmatory phase 3 trial outcome” value is recorded as “failed to meet its primary endpoint of OS”.
Take `CC(=O)O[C@@]12CO[C@@H]1C[C@H](O)[C@@]1(C)C(=O)[C@H](O)C3=C(C)[C@@H](OC(=O)[C@H](O)[C@@H](NC(=O)OC(C)(C)C)c4ccccc4)C[C@@](O)([C@@H](OC(=O)c4ccccc4)[C@H]21)C3(C)C` [docetaxel]: in data set [2] (after platinum and CPI therapy), the “ORR (n=2/19)” value was 10.5%.
With “pembrolizumab: humanized monoclonal IgG4 anti-PD-1 antibody”, the ORR in data set [2] (first line, patients ineligible for cisplatin, open label single arm study in 370 patients) is on record as 29%. The “difference in progression-free survival (PFS) between the two arms” value in data set [2] (second-line, post-platinum, phase 3, vs taxane chemotherapy or vinflunine) is listed as “No statistically significant difference”. For the same compound, in data set [2] (setting [4]), the ORR is recorded as 21% and the OS is given as 10.3 months.
As to `CC[C@]12C=CCN3CC[C@@]4(c5cc([C@@]6(C(=O)OC)C[C@@H]7C[C@@H](C(C)(F)F)CN(Cc8c6[nH]c6ccccc86)C7)c(OC)cc5N(C)[C@H]4[C@@](O)(C(=O)OC)[C@@H]1OC(C)=O)[C@@H]32` [vinflunine], in data set [2] (second-line treatment of metastatic disease), the overall response rate was 9%. For the same compound, the hazard ratio in data set [2] (second-line, vinflunine+BSC vs BSC alone) was 0.88. Besides, the survival benefit in data set [2] (second-line, vinflunine+best supportive care (BSC) vs BSC alone) is on record as 2 months. Further, the survival in data set [2] (second-line, vinflunine+best supportive care (BSC)) is reported as 6.9 months.
